Measurements from US9944690B2, “Methods for controlling T cell proliferation” (BELLICUM PHARMACEUTICALS, INC., priority 2013, dated 2018).
“Also recorded” adds a separate entry of the source. Like-named read-outs stand apart in the source and are kept apart here.

Legend:
[1] = cited from earlier work
cells = assay: Amount of AP1903 needed in vitro for effective signaling of cells; format: cell-based
Procedure: The amount of AP1903 needed in vitro for effective signaling of cells is about 10-100 nM (MW: 1412 Da). This equates to 14-140 μg/L or ˜0.014-0.14 mg/kg (1.4-140 μg/kg). The dosage may vary according to the application, and may, in certain examples, be more in the range of 0.1-10 nM, or in the range of 50-150 nM, 10-200 nM, 75-125 nM, 100-500 nM, 100-600 nM, 100-700 nM, 100-800 nM, or 100-900 nM. Doses up to 1 mg/kg were well-tolerated in the Phase I study of AP1903 described above.

[2] = system: T cells transduced with the retrovirus containing iMC (RV-172); assay: AP1903-induced T cell activation by cytokine production (Bio-Plex 27-plex); format: cell-based, human; settings: iMC (RV-172) T cells, 10 nM AP1903, 24 hours, supernatant
Procedure: 5. To assess AP1903-dependent T cell activation of T cells, 1×10^5 non-transduced (NT) or T cells transduced with the control retrovirus (RV-171) or the retrovirus containing iMC(RV-172) were plated in triplicate in 96-well plates and cultured at 37° C. 5% CO2 with media alone, or media containing 10 nM AP1903.
6. After 24 hours, the cells were gently mixed and the plate was centrifuged. Supernatant was then collected and plated into a Bio-Plex Human Cytokine/Chemokine 27-plex plate, which measures the following cytokines and chemokines: • a. Basic-FGF, G-CSF, GM-CSF, IFN-gamma, IL-1Ra, IL-1beta, IL-2, IL-4, IL-5, IL-6, […], IL-7, […], IL-9, IL-10, IL-12p70, IL-13, IL-15, IL-17RA, eotaxin, IP10, MCP-1, MIP-1alpha, MIP-1beta, PDGF-bb, RANTES, TNF-alpha and VEGF. • b. The cytokines and chemokines in the supernatants were subsequently measured and compared to standards in the plate using a Bio-Plex MAGPIX Multiplex Reader.
T cells were stimulated with 10 nM AP1903 for 24 hours then supernatants were assayed for cytokine levels.

[3] = system: T cells transduced with RV-172; assay: T cell proliferation in co-culture wells on AP1903 stimulation; settings: RV-172 T cells with 10 nM AP1903, co-culture 72 hours, both donors
Procedure: Non-transduced T cells or cells transduced with RV-171 (control vector) or RV-172 (iMC vector) were cultured at a 5:1 ratio of T cells to tumor cells in media supplemented with 50 U/ml IL-2, and either with or without 10 nM AP1903. Co-cultures were then incubated at 37° C. and 5% CO2 for 72 hours. Cultures were subsequently analyzed for the presence of GFP tumor cells by fluorescent microscopy and by harvesting the cultures with 0.25% trypsin/EDTA and measuring the frequency of GFP^+CD3^− tumor cells in the culture by flow cytometry.
Following these initial observations, T cells and tumor cells were harvested and analyzed by flow cytometry to determine the frequency of remaining CAPAN-1 GFP^+ tumor cells.

CAPAN-1-GFP tumor cells = assay: Co-culture of iMC-enabled T cells with CAPAN-1 tumor cells; format: cell-based, human; settings: RV-172 T cells : CAPAN-1-GFP 5:1, 10 nM AP1903, 72 hours

In the case of CC[C@H](C(=O)N1CCCC[C@H]1C(=O)O[C@H](CCc1ccc(OC)c(OC)c1)c1cccc(OCC(=O)NCCNC(=O)COc2cccc([C@@H](CCc3ccc(OC)c(OC)c3)OC(=O)[C@@H]3CCCCN3C(=O)[C@@H](CC)c3cc(OC)c(OC)c(OC)c3)c2)c1)c1cc(OC)c(OC)c(OC)c1 (relative stereo) [AP1903, 2-Piperidinecarboxylic acid, 1-[(2S)-1-oxo-2-(3,4,5-trimethoxyphenyl)butyl]-, 1,2-ethanediylbis[imino(2-oxo-2,1-ethanediyl)oxy-3,1-phenylene[(1R)-3-(3,4-dimethoxyphenyl)propylidene]]ester, [2S-[1(R*),2R*[S*[S*[1(R*),2R*]]]]]-(9Cl)], the “relation of AP1903 plasma levels to dose” value ([1]; 0.01, 0.05, 0.1, 0.5 and 1.0 mg/kg IV over 2 hours) is given as “directly proportional to dose”, the “plasma level as % of maximal concentration” value (from here on “plasma level as %”) ([1]; 0.5 hours post-dose) is given as “approximately 18%” and the “plasma level as %” value ([1]; 2 hours post-dose) is given as roughly 7%. For the same molecule, the “plasma level as %” value ([1]; 10 hours post-dose) was roughly 1%, the well-tolerated doses ([1]; Phase I study) was “up to 1 mg/kg” and the “mean Cmax” value ([1]; plasma, single doses over the 0.01-1.0 mg/kg dose range infused IV over 2 hours, 24 healthy volunteers) was 10 to 1275 ng/mL. The “amount needed for effective signaling, as dose” value (cells; converted from 14-140 μg/L) was 14 to 140 µg/kg, the “amount needed for effective signaling, as mass concentration” value (cells; converted with MW 1412 Da) was 14 to 140 µg/L and the “amount needed for effective signaling, as dose” value (cells; figure in brackets after the mg/kg range) was 1.4 to 140 µg/kg. For the same molecule, the “amount needed in vitro for effective signaling of cells” value (cells; in vitro) was 10 to 100 nM, the Basic-FGF secretion [2] was “did not appear to be induced” and the G-CSF secretion [2] was “did not appear to be induced”. For the same molecule, the GM-CSF secretion [2] was “showed induction”, the IFN-gamma secretion [2] was “showed induction” and the IL-1Ra secretion [2] was “did not appear to be induced”. The IL-1beta secretion [2] was “showed induction”, the IL-2 secretion [2] was “did not appear to be induced” and the IL-4 secretion [2] was “showed induction”. For the same molecule, the IL-5 secretion [2] was “showed induction”, the IL-6 secretion [2] was “showed induction” and the IL-7 secretion [2] was “did not appear to be induced”. For the same molecule, the IL-8 secretion [2] was “showed induction”, the IL-9 secretion [2] was “did not appear to be induced” and the IL-10 secretion [2] was “did not appear to be induced”. The IL-12p70 secretion [2] was “showed induction”, the IL-13 secretion [2] was “showed induction” and the IL-15 secretion [2] was “did not appear to be induced”. The IL-17RA secretion [2] was “did not appear to be induced”, the IP10 secretion [2] was “showed induction” and the MCP-1 secretion [2] was “did not appear to be induced”. For the same molecule, the MIP-1alpha secretion [2] was “showed induction”, the MIP-1beta secretion [2] was “showed induction” and the PDGF-bb secretion [2] was “did not appear to be induced”. The RANTES secretion [2] was “showed induction”, the TNF-alpha secretion [2] was “showed induction” and the VEGF secretion [2] was “did not appear to be induced”. The eotaxin secretion [2] was “did not appear to be induced”, the “T cell proliferation / T cell blast activation (inspection, microscopy)” value [3] was “proliferating; also recorded: activation of T cell blasts” and the “GFP+ tumor cells by flow cytometry” value (CAPAN-1-GFP tumor cells) was “reduction of GFP^+ tumor cells; also recorded: induces T cell killing of tumor cells”. The “GFP+ tumor cells by fluorescent microscopy” value (CAPAN-1-GFP tumor cells) was “very few viable GFP^+ tumor cells; also recorded: elimination of GFP^+ tumor cells”.
